Measured values taken from patent publication US4141989A, “Fungicidal 3-(N-chloroacetyl-N-arylamino)-gamma-butyrolactone compositions” (Chevron Research Company, priority 1977, dated 1979).

How the values were obtained:
Plasmopara viticola [1] = assay: Preventive grape downy mildew control, detached Emperor leaves (Example 5, Table I); format: in vivo; settings: 6.4 ppm, sprayed before inoculation
Plasmopara viticola [2] = assay: Eradicant grape downy mildew control, detached Emperor leaves (Example 6, Table I); format: in vivo; settings: 48 h, sprayed 2 days after inoculation, read-out: Eradicative Grape Downy Mildew Control, %
Plasmopara viticola [3] = assay: Preventive grape downy mildew control, detached Cabernet Sauvignon leaves (Example 7, Table II); format: in vivo
[4] = test system: yeasts responsible for the alcoholic fermentation of grapes; assay: Fermentation test, grape juice (Example 8, Table III); format: cell-based
Plasmopara viticola [5] = assay: Eradicant downy mildew control on grape cuttings, wettable powder (Example 10, Table V); format: in vivo
Protocol: Three-month-old single-bud Cabernet Sauvignon cuttings (cultivated in gravel) containing 6 to 10 leaves were used as hosts. The undersides of the leaves were sprayed with a sporangial suspension of Plasmopara viticola containing 510,000 conidia per milliliter of water. The inoculated cuttings were placed into a misting chamber. […] Ten to 11 days after the inoculation, the amount of disease control was determined. The percent disease control provided by the test compound was based on the percent disease reduction relative to untreated check cuttings.

Plasmopara viticola [6] = assay: Residual preventive grape downy mildew control, wettable powder (Example 11, Table VI); format: in vivo; settings: 160 ppm, inoculated 3 days after treatment
Protocol: Three-month-old single-bud Cabernet Sauvignon cuttings (cultivated in gravel), containing 5 to 8 leaves, were used as hosts. […] Three days after fungicide treatment, the undersides of the leaves were sprayed with a sporangial suspension of Plasmopara viticola. The inoculated cuttings were put into a misting chamber. Eight to 10 days after the inoculation, the amount of disease control was determined. The percent disease control provided by the test compound was based on the percent disease reduction relative to untreated check cuttings.

Plasmopora viticola = assay: Control of foliar grape downy mildew infection by root absorption (Example 12, Table VII); format: in vivo; settings: 50% wettable powder, 50 ppm
Text: Three-month-old single-bud Cabernet Sauvignon cuttings (cultivated in gravel), containing 9 to 12 leaves, were used as hosts. […] The cuttings were then replanted in gravel and put into a misting chamber. At four different times after root treatment, the leaf undersides were sprayed with a sporangial suspension of Plasmopora viticola. The inoculated cuttings were placed into the misting chamber to stimulate disease development. Ten to 12 days after inoculation, the amount of disease control was determined. The percent disease control provided by the test compound was based on the percent disease reduction relative to untreated check cuttings.

Bremia lactucae = assay: Control of lettuce downy mildew (Example 13, Table VIII); format: in vivo
[7] = test system: Peronospora parasitica ssp. brassicae; assay: Preventive control of cabbage downy mildew (Example 14, Table IX); format: in vivo; settings: for % Control: disease reduction relative to check flat
[8] = test system: Peronospora parasitica ssp. brassicae; assay: Curative control of cabbage downy mildew (Example 14, Table IX); format: in vivo; settings: for % Control: disease reduction relative to check flat
[9] = test system: Pseudoperonospora cubensis; assay: Foliar spray control of cucumber downy mildew (Example 15, Table X); format: in vivo
Phytophthora cryptogea [10] = assay: Snapdragon crown and root rot control, soil drench (Example 16, Table XI); format: in vivo; settings: soil drench, 100 ppm
Phytophthora cryptogea [11] = assay: Snapdragon crown and root rot control, foliar spray (Example 16, Table XI); format: in vivo; settings: foliar spray, 100 ppm
Phytophthora cryptogea [12] = assay: Safflower crown and root rot control by foliar spray (Example 17, Table XII); format: in vivo
Phytophthora cryptogea [13] = assay: Safflower crown and root rot control by soil drench, P. cryptogea (Example 18, Table XIII); format: in vivo
P. parasitica = assay: Safflower crown and root rot control by soil drench, P. parasitica (Example 18, Table XIII); format: in vivo
P. cryptogea = assay: Tobacco crown and root rot control by soil drench, P. cryptogea (Example 19, Table XIV); format: in vivo
Phytophthora parasitica = assay: Tobacco crown and root rot control by soil drench, P. parasitica (Example 19, Table XIV); format: in vivo
Phytophthora capsici = assay: Control of Phytophthora rot in sweet peppers (Example 20, Table XV); format: in vivo; settings: 50% wettable powder
Protocol: The pots were then inoculated with the organism by spreading a bed of oats grain (contaminated with the Phytophthora capsici organism) on the soil surface and covering the bed with a 1-cm depth of sterilized soil. The sweet pepper seedlings were then sprayed to runoff with an aqueous suspension of the test compound at various test concentrations (12 pots per concentration level). The amount of disease control was determined by counting the number of dead plants. The percent disease control provided by the test compound was based on the percent disease reduction relative to untreated check seedlings.

Oral LD50 (rats) = settings: rat, in vivo
Dermal LD50 (rats) = settings: rat, in vivo, topical or ocular
[14] = 61.5 ppm, treated 3 days after inoculation
[15] = 62.5 ppm, treated 1 day after inoculation
[16] = 62.5 ppm, treated 2 days after inoculation
[17] = inoculated 1 day after root treatment
[18] = inoculated 5 days after root treatment

In the case of Cc1cccc(C)c1N(C(=O)CCl)C1CCOC1=O (stereo not drawn) [Compound A, 3-(N-chloroacetyl-N-2,6-dimethylphenylamino)-gamma-butyrolactone], the pest or weed control at 6.4 ppm (Plasmopara viticola [1]) is reported as 97%, the pest or weed control at 6.4 ppm (Plasmopara viticola [2]; 6.4 ppm) is reported as 99% and the pest or weed control at 100 ppm (Plasmopara viticola [2]; 100 ppm) is reported as 99%. The “Percent Control” value (Plasmopara viticola [3]; 6.4 ppm) was 100%, the “Percent Control” value (Plasmopara viticola [3]; 16 ppm) was 100% and the “Percent Control” value (Plasmopara viticola [3]; 40 ppm) was 100%. The “Cumulative loss of weight due to CO2 escape” value (“Cumulative loss of weight due” below) ([4]; 1 ppm, after 1 day) was 0.9 grams, the “Cumulative loss of weight due” value ([4]; 1 ppm, after 2 days) was 5.0 grams and the “Cumulative loss of weight due” value ([4]; 1 ppm, after 3 days) was 10.5 grams. The “Cumulative loss of weight due” value ([4]; 1 ppm, after 4 days) was 11.3 grams, the “Cumulative loss of weight due” value ([4]; 1 ppm, after 7 days) was 14.2 grams and the “Cumulative loss of weight due” value ([4]; 1 ppm, after 8 days) was 14.5 grams. The “Cumulative loss of weight due” value ([4]; 2 ppm, after 1 day) was 0.8 grams, the “Cumulative loss of weight due” value ([4]; 2 ppm, after 2 days) was 5.2 grams and the “Cumulative loss of weight due” value ([4]; 2 ppm, after 3 days) was 10.4 grams. For the same compound, the “Cumulative loss of weight due” value ([4]; 2 ppm, after 4 days) was 11.1 grams, the “Cumulative loss of weight due” value ([4]; 2 ppm, after 7 days) was 13.4 grams and the “Cumulative loss of weight due” value ([4]; 2 ppm, after 8 days) was 13.7 grams. The “Cumulative loss of weight due” value ([4]; 4 ppm, after 1 day) was 1.0 grams, the “Cumulative loss of weight due” value ([4]; 4 ppm, after 2 days) was 5.2 grams and the “Cumulative loss of weight due” value ([4]; 4 ppm, after 3 days) was 10.4 grams. For the same compound, the “Cumulative loss of weight due” value ([4]; 4 ppm, after 4 days) was 11.1 grams, the “Cumulative loss of weight due” value ([4]; 4 ppm, after 7 days) was 13.1 grams and the “Cumulative loss of weight due” value ([4]; 4 ppm, after 8 days) was 13.3 grams. The “Cumulative loss of weight due” value ([4]; 8 ppm, after 1 day) was 1.0 grams, the “Cumulative loss of weight due” value ([4]; 8 ppm, after 2 days) was 5.4 grams and the “Cumulative loss of weight due” value ([4]; 8 ppm, after 3 days) was 11.0 grams. The “Cumulative loss of weight due” value ([4]; 8 ppm, after 4 days) was 11.8 grams, the “Cumulative loss of weight due” value ([4]; 8 ppm, after 7 days) was 14.5 grams and the “Cumulative loss of weight due” value ([4]; 8 ppm, after 8 days) was 15.2 grams. The “% Disease Control” value (Plasmopara viticola [5]; [14]) was 84.7%, the “% Leaf Surface Infected” value (Plasmopara viticola [5]; [14]) was 4.15% and the “% Disease Control” value (Plasmopara viticola [5]; 62.5 ppm) was 91.6%. The “% Disease Control” value (Plasmopara viticola [5]; [15]) was 97.6%, the “% Leaf Surface Infected” value (Plasmopara viticola [5]; [15]) was 0.51% and the “% Disease Control” value (Plasmopara viticola [5]; [16]) was 96.2%. The “% Leaf Surface Infected” value (Plasmopara viticola [5]; [16]) was 0.55%, the “% Leaf Surface Infected” value (Plasmopara viticola [5]; 62.5 ppm, treated 5 days after inoculation) was 2.5% and the “% Disease Control” value (Plasmopara viticola [6]) was 99.8%. For the same compound, the “% Leaf Surface Infected” value (Plasmopara viticola [6]) was 0.03%, the “% Disease Control” value (Plasmopora viticola; [17]) was 33.5% and the “% Leaf Surface Infected” value (Plasmopora viticola; [17]) was 6.26%. The “% Disease Control” value (Plasmopora viticola; [18]) was 98%, the “% Leaf Surface Infected” value (Plasmopora viticola; [18]) was 0.32% and the “% Control” value (Bremia lactucae; 25 g active/hl) was 75.8%. For the same compound, the “% Dead Seedlings” value (Bremia lactucae; 25 g active/hl) was 5.9%, the “% Control” value (Bremia lactucae; 50 g active/hl) was 90.6% and the “% Dead Seedlings” value (Bremia lactucae; 50 g active/hl) was 1.1%. For the same compound, the “% Control” value (Bremia lactucae; 100 g active/hl) was 95.5%, the “% Dead Seedlings” value (Bremia lactucae; 100 g active/hl) was 2.3% and the “% Diseased Seedlings” value ([7]; 20 g a.i./hl) was 1.8%. The “% Control” value ([7]; 20 g a.i./hl) was 98.2%, the “% Diseased Seedlings” value ([7]; 40 g a.i./hl) was 2.2% and the “% Control” value ([7]; 40 g a.i./hl) was 97.7%. The “% Diseased Seedlings” value ([7]; 80 g a.i./hl) was 1.5%, the “% Control” value ([7]; 80 g a.i./hl) was 98.5% and the “% Diseased Seedlings” value ([8]; 20 g a.i./hl) was 1.8%. The “% Control” value ([8]; 20 g a.i./hl) was 98.2%, the “% Diseased Seedlings” value ([8]; 40 g a.i./hl) was 1.0% and the “% Control” value ([8]; 40 g a.i./hl) was 99.0%. The “% Diseased Seedlings” value ([8]; 80 g a.i./hl) was 0.6%, the “% Control” value ([8]; 80 g a.i./hl) was 99.4% and the “% Control” value ([9]; 16 ppm) was 63%. For the same compound, the “% Control” value ([9]; 40 ppm) was 88%, the “% Control” value ([9]; 100 ppm) was 100% and the “% Control” value (Phytophthora cryptogea [10]) was 100%. For the same compound, the “% Control” value (Phytophthora cryptogea [11]) was 97%, the “% Control” value (Phytophthora cryptogea [12]; 16 ppm) was 92% and the “% Control” value (Phytophthora cryptogea [12]; 40 ppm) was 97%. The “% Control” value (Phytophthora cryptogea [12]; 100 ppm) was 100%, the “% Control, P. Cryptogea” value (Phytophthora cryptogea [13]; 16 ppm) was 92% and the “% Control, P. Cryptogea” value (Phytophthora cryptogea [13]; 40 ppm) was 97%. The “% Control, P. Cryptogea” value (Phytophthora cryptogea [13]; 100 ppm) was 100%, the “% Control, P. Parasitica” value (P. parasitica; 16 ppm) was 94% and the “% Control, P. Parasitica” value (P. parasitica; 40 ppm) was 99%. For the same compound, the “% Control, P. Parasitica” value (P. parasitica; 100 ppm) was 100%, the “% Control, P. Cryptogea” value (P. cryptogea; 16 ppm) was 96% and the “% Control, P. Cryptogea” value (P. cryptogea; 40 ppm) was 99.8%. For the same compound, the “% Control, P. Cryptogea” value (P. cryptogea; 100 ppm) was 100%, the “% Control, P. Parasitica” value (Phytophthora parasitica; 16 ppm) was 96% and the “% Control, P. Parasitica” value (Phytophthora parasitica; 40 ppm) was 99.8%. For the same compound, the “% Control, P. Parasitica” value (Phytophthora parasitica; 100 ppm) was 100%, the “% Control” value (Phytophthora capsici; 100 g/hl) was 25% and the “% Leaf Surface Damaged” value (Phytophthora capsici; 100 g/hl) was 0%. For the same compound, the “% of Alive Seedlings” value (Phytophthora capsici; 100 g/hl) was 50%, the “% Control” value (Phytophthora capsici; 200 g/hl) was 100% and the “% Leaf Surface Damaged” value (Phytophthora capsici; 200 g/hl) was 1.3%. For the same compound, the “% of Alive Seedlings” value (Phytophthora capsici; 200 g/hl) was 100%, the “% Control” value (Phytophthora capsici; 400 g/hl) was 100% and the “% Leaf Surface Damaged” value (Phytophthora capsici; 400 g/hl) was 1.63%. The “% of Alive Seedlings” value (Phytophthora capsici; 400 g/hl) was 100%, the LD50 (Oral LD50 (rats)) was greater than 1000 mg/kg and the LD50 (Dermal LD50 (rats)) was greater than 2000 mg/kg.
